According to patent US7514254B2, “Plant-derived alkaline alpha-galactosidase” (The State of Israel, Ministry of Agriculture & Rural …, priority 1998, dated 2009):

Legend:
[1] = target: T1, melon (Cucumis melo) fruit alkaline alpha-galactosidase Form I (Cucumis melo, UniProt Q84NI7); experiment: Substrate kinetics (Lineweaver-Burk) of alkaline alpha-galactosidase Form I; details: for Vmax: Lineweaver-Burk
T1 sequence (Q84NI7 1-754): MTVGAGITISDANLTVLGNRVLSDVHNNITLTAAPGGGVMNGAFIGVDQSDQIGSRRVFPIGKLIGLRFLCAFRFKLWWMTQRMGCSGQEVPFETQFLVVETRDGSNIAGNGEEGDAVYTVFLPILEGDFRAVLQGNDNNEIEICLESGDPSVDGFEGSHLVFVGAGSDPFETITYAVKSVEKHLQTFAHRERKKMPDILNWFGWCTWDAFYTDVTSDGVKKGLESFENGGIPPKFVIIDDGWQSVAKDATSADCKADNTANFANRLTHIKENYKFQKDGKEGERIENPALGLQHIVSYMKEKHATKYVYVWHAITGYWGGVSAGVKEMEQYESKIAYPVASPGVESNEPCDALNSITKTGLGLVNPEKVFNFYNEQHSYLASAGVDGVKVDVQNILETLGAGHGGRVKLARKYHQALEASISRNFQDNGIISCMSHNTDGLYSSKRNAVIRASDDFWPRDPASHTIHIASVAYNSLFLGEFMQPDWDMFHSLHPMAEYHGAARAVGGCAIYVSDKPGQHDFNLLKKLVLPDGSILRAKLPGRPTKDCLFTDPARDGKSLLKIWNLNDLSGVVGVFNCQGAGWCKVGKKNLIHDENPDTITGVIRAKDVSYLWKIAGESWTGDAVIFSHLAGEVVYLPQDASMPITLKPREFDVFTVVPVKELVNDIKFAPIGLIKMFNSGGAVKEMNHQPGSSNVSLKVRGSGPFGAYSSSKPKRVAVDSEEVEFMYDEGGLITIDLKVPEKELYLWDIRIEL
Protocol: (§1) For routine analysis and monitoring the activity in the purification steps, alpha-galactosidase was assayed as described by Smart and Pharr (“Characterization of alpha-galactosidase from cucumber leaves”, Plant Physiology, 66:731-734, 1980), using p-nitrophenyl alpha-galactoside (pNPG) as substrate. Reaction was initiated by adding 50 μl enzyme aliquot to either 200 μl 100 mM pH 5.5 McIlvaine buffer or 100 mM pH 7.5 HEPES buffer, containing 5 mM pNPG at 35 C. The reaction was terminated after 10 min by adding 1 ml of 5% (w/v) Na2CO3 and activity expressed as nmol nitrophenol per min as measured at 410 nm. […] The assay was started by adding 50 μl enzyme preparation at 35 C and terminated after 10 to 20 min by 2 min boiling.
(§2) The fractions from the DEAE-Sepharose chromatography which were active at pH 7.5 were pooled and dialyzed against buffer A for 12 h prior to loading onto an HPLC ion exchange chromatography column (Mono-Q HR 5/5, Pharmacia, Uppsala, Sweden), previously equilibrated with buffer A. Bound proteins were eluted with a linear gradient of 0.1 to 0.45 M NaCl and the active fractions were detected using pNPG as substrate at pH 7.5 as described above. […] For the further purification of Form II the active fractions of the peak II were chromatographed on hydrophobic interaction chromatography. The fractions were pooled, brought to 1 M (NH4)2SO4 and loaded on to a hydrophobic interaction column (phenyl-Sepharose CL-4B, 0.5×12 cm, Pharmacia, Uppsala, Sweden) previously equilibrated with buffer A containing 1 M (NH4)2SO4. The protein was eluted with a reverse stepwise gradient from 1 to 0 M (NH4)2SO4 with 50 mM intervals in buffer A. Fractions containing the activity peak were collected and dialyzed for 12 h against buffer A and the dialysate was concentrated by reverse dialysis against solid sucrose. The enzyme, partially purified by hydrophobic interaction chromatography, was used for the characterization of Form II. The active fractions from the hydrophobic interaction column were further purified. Active fractions were separated electrophoretically using a Mini Prep Cell (Bio-Rad Laboratories, Hercules, Calif.) for discontinuous native-PAGE with 7% polyacrylamide, according to manufacturer's instructions. Fractions (0.25 ml/fraction) were assayed at pH 7.5 with pNPG as substrate for the activity. The active fractions were pooled, concentrated by Vivaspin Concentrator (Vivascience LTD, Lincoln, England), and run in a 8% SDS-PAGE. Proteins in the SDS-PAGE were identified using Coomassie Blue staining.
Therefore, the active fractions from the Mono-Q column were used for the characterization of Form I. In addition, the Form I enzyme was further purified, as described in the following section.

[2] = target: T2, melon (Cucumis melo) fruit alkaline alpha-galactosidase Form II (Cucumis melo, UniProt Q84NI6); experiment: Substrate kinetics (Lineweaver-Burk) of alkaline alpha-galactosidase Form II; format: biochemical, muskmelon (Cucumis melo L. cv C-8); details: for Vmax: Lineweaver-Burk
T2 construct: native 102 kDa, denatured 92 kDa; assayed at pH 7.5
T2 sequence (Q84NI6 1-772): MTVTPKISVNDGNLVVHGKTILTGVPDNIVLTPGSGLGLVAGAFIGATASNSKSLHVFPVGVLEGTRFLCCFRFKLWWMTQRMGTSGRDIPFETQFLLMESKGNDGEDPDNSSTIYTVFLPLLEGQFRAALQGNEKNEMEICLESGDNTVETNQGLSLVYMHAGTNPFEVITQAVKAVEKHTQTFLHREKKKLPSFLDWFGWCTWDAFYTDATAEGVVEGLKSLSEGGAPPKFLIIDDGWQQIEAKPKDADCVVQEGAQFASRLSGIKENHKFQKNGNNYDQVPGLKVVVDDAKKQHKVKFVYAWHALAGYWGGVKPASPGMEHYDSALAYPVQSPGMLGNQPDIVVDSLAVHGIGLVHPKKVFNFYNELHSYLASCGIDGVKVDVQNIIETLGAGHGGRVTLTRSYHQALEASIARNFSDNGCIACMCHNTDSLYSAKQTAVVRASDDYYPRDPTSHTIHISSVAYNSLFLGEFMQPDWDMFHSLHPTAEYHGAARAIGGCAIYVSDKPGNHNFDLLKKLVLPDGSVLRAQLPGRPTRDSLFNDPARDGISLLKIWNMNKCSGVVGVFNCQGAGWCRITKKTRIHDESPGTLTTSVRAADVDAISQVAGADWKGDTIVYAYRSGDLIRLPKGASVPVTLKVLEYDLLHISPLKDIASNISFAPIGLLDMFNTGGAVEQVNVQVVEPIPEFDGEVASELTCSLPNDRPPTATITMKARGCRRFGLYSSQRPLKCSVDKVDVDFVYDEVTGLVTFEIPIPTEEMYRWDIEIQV
Protocol: as §1, §2

[3] = test system: melon (Cucumis melo) fruit acid form alpha-galactosidase; experiment: Substrate kinetics (Lineweaver-Burk) of acid alpha-galactosidase; format: biochemical, muskmelon (Cucumis melo L. cv C-8); details: for Km / Vmax: Lineweaver-Burk
Protocol: For routine analysis and monitoring the activity in the purification steps, alpha-galactosidase was assayed as described by Smart and Pharr (“Characterization of alpha-galactosidase from cucumber leaves”, Plant Physiology, 66:731-734, 1980), using p-nitrophenyl alpha-galactoside (pNPG) as substrate. […] The reaction was terminated after 10 min by adding 1 ml of 5% (w/v) Na2CO3 and activity expressed as nmol nitrophenol per min as measured at 410 nm. […] The assay was started by adding 50 μl enzyme preparation at 35 C and terminated after 10 to 20 min by 2 min boiling. […] For the partial purification of the acid form of alpha-galactosidase the fractions active at pH 5.5 were pooled and concentrated by reverse dialysis against solid sucrose. […] The active fractions were then desalted by dialysis against buffer A for 12 hours with two changes of the buffer. This enzyme fraction was used for the characterization of the acidic form of alpha-galactosidase. […] The substrate specificity of the alpha-galactosidases was tested with pNPG, stachyose, raffinose, melibiose or guar gum (Sigma).

[4] = test system: Escherichia coli K12 alpha-galactosidase; details: Schmid and Schmitt 1976; cited from earlier work
[5] = test system: Pseudomonas fluorescens H-601 alpha-galactosidase; details: Hashimoto et al. 1991; relative Km values; cited from earlier work
[6] = substrate: O=[N+]([O-])c1ccc(O[C@H]2O[C@H](CO)[C@H](O)[C@H](O)[C@H]2O)cc1; experiment: purified protein, by the assay type; details: other: alkaline Form I; Lineweaver-Burk; 35.0 °C
[7] = substrate: OC[C@H]1O[C@H](OC[C@H]2O[C@H](O[C@]3(CO)O[C@H](CO)[C@@H](O)[C@@H]3O)[C@H](O)[C@@H](O)[C@@H]2O)[C@H](O)[C@@H](O)[C@H]1O; experiment: purified protein, by the assay type; details: other: alkaline Form I; Lineweaver-Burk; 35.0 °C
[8] = substrate: OC[C@H]1O[C@H](OC[C@H]2OC(O)[C@H](O)[C@@H](O)[C@@H]2O)[C@H](O)[C@@H](O)[C@H]1O; experiment: purified protein, by the assay type; details: other: alkaline Form I; Lineweaver-Burk; 35.0 °C
[9] = substrate: OC[C@H]1O[C@H](OC[C@H]2O[C@H](OC[C@H]3O[C@H](O[C@]4(CO)O[C@H](CO)[C@@H](O)[C@@H]4O)[C@H](O)[C@@H](O)[C@@H]3O)[C@H](O)[C@@H](O)[C@H]2O)[C@H](O)[C@@H](O)[C@H]1O; experiment: purified protein, by the assay type; details: other: alkaline Form I; Lineweaver-Burk; 35.0 °C
[10] = raffinose versus melibiose; literature; cited from earlier work

O=[N+]([O-])c1ccc(O[C@H]2O[C@H](CO)[C@H](O)[C@H](O)[C@H]2O)cc1 [pNPG, p-nitrophenyl alpha-galactopyranoside]
Vmax/Km ratio [1]: 1.17 | Vmax [1]: 1.4 μmol mg^−1 protein min^−1 | Vmax/Km ratio [2]: 2.63 | Vmax [2]: 7.9 μmol mg^−1 protein min^−1 | Vmax/Km ratio [3]: 5.00 | Km [3]: 300 µM | Vmax [3]: 1.5 μmol mg^−1 protein min^−1 | pNPG concentration above which enzyme is inhibited (substrate inhibition) ([3]; pNPG as substrate): above 5 mM

OC[C@H]1O[C@H](OC[C@H]2OC(O)[C@H](O)[C@@H](O)[C@@H]2O)[C@H](O)[C@@H](O)[C@H]1O (stereo partly drawn) [Melibiose, 6-O-alpha-D-galactopyranosyl-D-glucose]
Vmax [1]: 0.3 μmol mg^−1 protein min^−1 | Vmax [2]: 0.23 μmol mg^−1 protein min^−1 | Vmax/Km ratio [3]: 0.27 | Km [3]: 700 µM | Vmax [3]: 0.19 μmol mg^−1 protein min^−1 | Km [4]: 3200 µM | Km [5]: 3200 µM

B1: melon (Cucumis melo) fruit alkaline alpha-galactosidase Form I (Cucumis melo) (protein)
chain: MTVGAGITISDANLTVLGNRVLSDVHNNITLTAAPGGGVMNGAFIGVDQSDQIGSRRVFPIGKLIGLRFLCAFRFKLWWMTQRMGCSGQEVPFETQFLVVETRDGSNIAGNGEEGDAVYTVFLPILEGDFRAVLQGNDNNEIEICLESGDPSVDGFEGSHLVFVGAGSDPFETITYAVKSVEKHLQTFAHRERKKMPDILNWFGWCTWDAFYTDVTSDGVKKGLESFENGGIPPKFVIIDDGWQSVAKDATSADCKADNTANFANRLTHIKENYKFQKDGKEGERIENPALGLQHIVSYMKEKHATKYVYVWHAITGYWGGVSAGVKEMEQYESKIAYPVASPGVESNEPCDALNSITKTGLGLVNPEKVFNFYNEQHSYLASAGVDGVKVDVQNILETLGAGHGGRVKLARKYHQALEASISRNFQDNGIISCMSHNTDGLYSSKRNAVIRASDDFWPRDPASHTIHIASVAYNSLFLGEFMQPDWDMFHSLHPMAEYHGAARAVGGCAIYVSDKPGQHDFNLLKKLVLPDGSILRAKLPGRPTKDCLFTDPARDGKSLLKIWNLNDLSGVVGVFNCQGAGWCKVGKKNLIHDENPDTITGVIRAKDVSYLWKIAGESWTGDAVIFSHLAGEVVYLPQDASMPITLKPREFDVFTVVPVKELVNDIKFAPIGLIKMFNSGGAVKEMNHQPGSSNVSLKVRGSGPFGAYSSSKPKRVAVDSEEVEFMYDEGGLITIDLKVPEKELYLWDIRIEL
Km [6]: 1200 µM | Km [7]: 1500 µM | Vmax [7]: 0.56 µmol/min | Km [8]: 20000 µM | Vmax [8]: 0.3 µmol/min | Km [9]: 4000 µM | Vmax [9]: 0.24 µmol/min

B2: alpha-galactosidase from Escherichia coli K12: alpha-galactosidase of Schmid and Schmitt, tetrameric protein (protein, UniProt P06720 1-451, looked up)
Alpha-galactosidase: MMSAPKITFIGAGSTIFVKNILGDVFHREALKTAHIALMDIDPTRLEESHIVVRKLMDSAGASGKITCHTQQKEALEDADFVVVAFQIGGYEPCTVTDFEVCKRHGLEQTIADTLGPGGIMRALRTIPHLWQICEDMTEVCPDATMLNYVNPMAMNTWAMYARYPHIKQVGLCHSVQGTAEELARDLNIDPATLRYRCAGINHMAFYLELERKTADGSYVNLYPELLAAYEAGQAPKPNIHGNTRCQNIVRYEMFKKLGYFVTESSEHFAEYTPWFIKPGREDLIERYKVPLDEYPKRCVEQLANWHKELEEYKKASRIDIKPSREYASTIMNAIWTGEPSVIYGNVRNDGLIDNLPQGCCVEVACLVDANGIQPTKVGTLPSHLAALMQTNINVQTLLTEAILTENRDRVYHAAMMDPHTAAVLGIDEIYALVDDLIAAHGDWLPGWLHR
activity with raffinose as compared to melibiose [10]: about 4%
